Like-named read-outs stand apart in the source and are kept apart here.
Assays:
human KISS-receptor = biological target: T1, human KISS-receptor (Homo sapiens, UniProt Q969F8); assay: NFAT-regulated luciferase reporter gene assay in CHO-k1 cells, agonist activity; assay type: cell-based
T1 construct: expressed in transfected cells; host or cells: CHO-k1 cells that also express mitochondrially targeted aequorin, Gα16 and an NFAT-luciferase reporter
Experimental: CHO-k1 cells were used that expressed the mitochondrially targeted aequorine and Gα16 (from Euroscreen, Brussels, Belgium), a Nuclear Factor of Activated T-cells-responsive element (NFAT) under the control of a promoter directing the expression of a firefly luciferase reporter gene (pNFAT-TALuc obtained from Clontech, Mountain View, Calif.), and the human GPR54-R Hygro(+)-hGPR54WT c4; MSD). These cells were cultured in Dulbecco's Modified Eagle Medium: Nutrient Mixture F-12 (DMEM/F12) (Invitrogen, Carlsbad, Calif.), supplemented with 10% (vol/vol) filtered bovine serum (Hyclone, Thermo Fisher Scientific, Waltham, Mass.), 100 U/ml penicillin G, 100 μg/ml streptomycin, 400 μg/ml Geneticin and 400 μg/ml Hygromycin (Invitrogen). […] Kisspeptin-10 was used as a standard. […] When the conjugates were tested in the presence of a final percentage of 20% human serum, 10 μl assay medium containing 60% human serum (Sigma-Aldrich, #H4522) was added to the wells. In the absence of human serum, 10 μl of assay medium was added. Cells were harvested and diluted to a concentration of 7.5E5 cells/ml in assay medium without 0.1% BSA. 10 μl of cell solution was added to the compound wells. After incubation for 4 hours in a humidified atmosphere at 5% CO2 and 37° C., the plate was left at room temperature for 30 minutes. Subsequently, 15 μl of Steadylite™ solution (PerkinElmer, Boston, Mass.) was added and the cells, protected from light, were allowed to lyse for 30 min at room temperature. Luminescence, indicated as relative luminescence units (RLU), was measured on an Envision Multilabel reader (PerkinElmer).

[1] = In vitro stability in human serum (LC/MS/MS); conditions: human
Experimental: Test compound is added to 1.5 mL human serum in a 96-wells deepwell plate in a final concentration of 750 nM. The compound is mixed and immediately thereafter a 100 μl sample is harvested in a 96-wells 2D-tuberack (T=0 sample). The 2 D-tubes are closed with rubber tube caps and the sample plate is stored at −20° CF. in the freezer. The deepwell plate is put into an incubator which was set at humidified (95%) atmosphere at 5-7% CO2 and 37° C. for an incubation period of maximum 240 h. During this incubation period, samples of 100 μl are collected on various time intervals, dependent on the test compound used; time points 0, 1, 2, 3, 6, 24, 48, 72 h in case of Kisspeptides and 0, 3, 6, 24, 48, 72, 168, 240 h in case of kisspeptide-pentasaccharide conjugates. Sample plates are put on ice in case of sampling and stored at −20° C. until analysis by LC/MS/MS.
For LC-MS/MS analysis, the compounds are separated over an XTerra RP8 column and using a gradient mobile phase of ammonium acetate buffer and acetonitrile at a fixed column temperature. MS/MS detection is done with a triple quadrupole mass spectrometer and employing negative ion electrospray ionization. The mass spectrometer is set up to achieve a known degree of in source fragmentation, where the initially formed multiply charged negative ions lose one or more SO3 molecules. The most abundant of these secondary ions are then subjected to a common MS/MS experiment in which a single SO3 loss is monitored. The Q1 and Q3 mass filter settings for this MS/MS experiment have commonly been determined in method development. […] Internal standardization is accomplished by adding a different conjugate of approximately the same size to the bioanalytical samples.
The rate of compound loss is expressed as a half-life (plasma t^1/2). The t^1/2 for the test compound can be determined by plotting the natural logarithm (In) of the measured concentrations against time and fitting the line through all data points. The gradient of this line is the first order rate constant (k) for substrate disappearance and is determined by regression analysis. The rate constant is converted to a half-life according to the following equation: In vitro half-life(t^1/2)=−ln 2/k

[2] = absence of human serum, read-out: pEC50 (converted)
[3] = presence of 20% human serum, read-out: pEC50 serum (converted)

T1 sequence (Q969F8 whole entry): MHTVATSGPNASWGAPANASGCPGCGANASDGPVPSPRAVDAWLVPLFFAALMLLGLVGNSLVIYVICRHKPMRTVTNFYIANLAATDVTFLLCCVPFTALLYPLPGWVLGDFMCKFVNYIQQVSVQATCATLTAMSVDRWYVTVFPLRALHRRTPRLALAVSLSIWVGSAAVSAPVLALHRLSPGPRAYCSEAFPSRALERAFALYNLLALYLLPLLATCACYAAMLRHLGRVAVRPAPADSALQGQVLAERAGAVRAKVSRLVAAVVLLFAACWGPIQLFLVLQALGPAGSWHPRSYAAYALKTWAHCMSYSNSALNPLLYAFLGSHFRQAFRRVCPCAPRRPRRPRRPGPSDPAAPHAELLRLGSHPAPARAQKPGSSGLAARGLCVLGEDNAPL

Row | Structure (SMILES) | EC50 (human KISS-receptor; pEC50, absence of human serum) [nM] | EC50 (human KISS-receptor; pEC50 serum, presence of 20% human serum) [nM] | half-life at 750 nM [1] [h] | EC50 (human KISS-receptor; [2]) [nM] | EC50 (human KISS-receptor; [3]) [nM]
1 | CNC(=N)NCCC[C@H](NC(=O)[C@H](CC(C)C)NC(=O)NNC(=O)[C@H](Cc1ccccc1)NC(=O)[C@@H](NC(=O)[C@H](CC(N)=O)NC(=O)[C@H](Cc1c[nH]c2ccccc12)NC(=O)[C@H](CC(N)=O)NC(=O)[C@@H](Cc1ccc(O)cc1)NC(=O)CCCCn1cc(CCC(=O)NCCOCCOCCOCCO[C@H]2[C@H](OC)[C@@H](OC)[C@@H](O[C@H]3[C@H](OC)[C@@H](OC)[C@H](O[C@H]4[C@H](OS(=O)(=O)O)[C@@H](OS(=O)(=O)O)[C@@H](O[C@H]5[C@H](OC)[C@@H](OC)[C@H](O[C@H]6[C@H](OC)[C@@H](OS(=O)(=O)O)[C@@H](OC)O[C@@H]6COS(=O)(=O)O)O[C@H]5C(=O)O)O[C@@H]4COS(=O)(=O)O)O[C@@H]3C(=O)O)O[C@@H]2COS(=O)(=O)O)nn1)[C@@H](C)O)C(=O)N[C@@H](Cc1ccccc1)C(N)=O [Conjugate C7] | 0.158 | 0.501 | 171 | – | –
2 | CNC(=N)NCCC[C@H](NC(=O)[C@H](CC(C)C)NC(=O)NNC(=O)[C@H](Cc1ccccc1)NC(=O)[C@@H](NC(=O)[C@H](CC(N)=O)NC(=O)[C@H](Cc1c[nH]c2ccccc12)NC(=O)[C@H](CC(N)=O)NC(=O)[C@@H](Cc1ccc(O)cc1)NC(=O)CCOCCOCCOCCOCCn1cc(CCC(=O)NCCOCCOCCOCCO[C@H]2[C@H](OC)[C@@H](OC)[C@@H](O[C@H]3[C@H](OC)[C@@H](OC)[C@H](O[C@H]4[C@H](OS(=O)(=O)O)[C@@H](OS(=O)(=O)O)[C@@H](O[C@H]5[C@H](OC)[C@@H](OC)[C@H](O[C@H]6[C@H](OC)[C@@H](OS(=O)(=O)O)[C@@H](OC)O[C@@H]6COS(=O)(=O)O)O[C@H]5C(=O)O)O[C@@H]4COS(=O)(=O)O)O[C@@H]3C(=O)O)O[C@@H]2COS(=O)(=O)O)nn1)[C@@H](C)O)C(=O)N[C@@H](Cc1ccccc1)C(N)=O [Conjugate C10] | – | – | 121 | 0.123 | 0.525
3 | CNC(=N)NCCC[C@H](NC(=O)[C@H](CC(C)C)NC(=O)CNC(=O)[C@H](Cc1ccccc1)NC(=O)[C@@H](NC(=O)[C@H](CC(N)=O)NC(=O)[C@@H]1C[C@@H](O)CN1C(=O)[C@H](CC(N)=O)NC(=O)[C@H](Cc1ccc(O)cc1)NC(=O)CCOCCOCCOCCOCCn1cc(CCC(=O)NCCOCCOCCOCCO[C@H]2[C@H](OC)[C@@H](OC)[C@@H](O[C@H]3[C@H](OC)[C@@H](OC)[C@H](O[C@H]4[C@H](OS(=O)(=O)O)[C@@H](OS(=O)(=O)O)[C@@H](O[C@H]5[C@H](OC)[C@@H](OC)[C@H](O[C@H]6[C@H](OC)[C@@H](OS(=O)(=O)O)[C@@H](OC)O[C@@H]6COS(=O)(=O)O)O[C@H]5C(=O)O)O[C@@H]4COS(=O)(=O)O)O[C@@H]3C(=O)O)O[C@@H]2COS(=O)(=O)O)nn1)[C@@H](C)O)C(=O)N[C@@H](Cc1ccccc1)C(N)=O [Conjugate C25] | – | – | 188 | 0.372 | 1.02
4 | CNC(=N)NCCC[C@H](NC(=O)[C@H](CC(C)C)NC(=O)NNC(=O)[C@H](Cc1ccccc1)NC(=O)[C@@H](NC(=O)[C@H](CC(N)=O)NC(=O)[C@@H]1C[C@@H](O)CN1C(=O)[C@@H](Cc1ccc(O)cc1)NC(=O)CCCCn1cc(CCC(=O)NCCOCCOCCOCCO[C@H]2[C@H](OC)[C@@H](OC)[C@@H](O[C@H]3[C@H](OC)[C@@H](OC)[C@H](O[C@H]4[C@H](OS(=O)(=O)O)[C@@H](OS(=O)(=O)O)[C@@H](O[C@H]5[C@H](OC)[C@@H](OC)[C@H](O[C@H]6[C@H](OS(=O)(=O)O)[C@@H](OS(=O)(=O)O)[C@@H](OC)O[C@@H]6COS(=O)(=O)O)O[C@H]5C(=O)O)O[C@@H]4COS(=O)(=O)O)O[C@@H]3C(=O)O)O[C@@H]2COS(=O)(=O)O)nn1)[C@@H](C)O)C(=O)N[C@@H](Cc1c[nH]c2ccccc12)C(N)=O [Conjugate C31] | – | – | > 240 | – | –
